Results as given in US8613914B2, “Peptidomimetic sulfamide compounds and antiviral uses thereof” (Novartis AG, priority 2009, dated 2013).

Biological target: HCV NS3-4A serine protease (full-length NS3-4A protein) (Hepatitis C virus genotype 1a (isolate 1) (HCV), UniProt P26664)
Test: HCV NS3-4A protease assay
Format: biochemical, HCV genotype 1a
Details: strain HCV-1, fluorogenic peptide substrate, read-out: Protease assay Ex. 12 IC50
Description: The inhibitory activity of certain compounds of Table A against HCV NS3-4A serine protease is determined in a homogenous assay using the full-length NS3-4A protein (genotype 1a, strain HCV-1) and a commercially available internally-quenched fluorogenic peptide substrate as described by Taliani, M., et al. 1996 Anal. Biochem. 240:60-67, which is incorporated by reference in its entirety.

HCV NS3-4A serine protease (full-length NS3-4A protein), sequence (P26664 1027-1657): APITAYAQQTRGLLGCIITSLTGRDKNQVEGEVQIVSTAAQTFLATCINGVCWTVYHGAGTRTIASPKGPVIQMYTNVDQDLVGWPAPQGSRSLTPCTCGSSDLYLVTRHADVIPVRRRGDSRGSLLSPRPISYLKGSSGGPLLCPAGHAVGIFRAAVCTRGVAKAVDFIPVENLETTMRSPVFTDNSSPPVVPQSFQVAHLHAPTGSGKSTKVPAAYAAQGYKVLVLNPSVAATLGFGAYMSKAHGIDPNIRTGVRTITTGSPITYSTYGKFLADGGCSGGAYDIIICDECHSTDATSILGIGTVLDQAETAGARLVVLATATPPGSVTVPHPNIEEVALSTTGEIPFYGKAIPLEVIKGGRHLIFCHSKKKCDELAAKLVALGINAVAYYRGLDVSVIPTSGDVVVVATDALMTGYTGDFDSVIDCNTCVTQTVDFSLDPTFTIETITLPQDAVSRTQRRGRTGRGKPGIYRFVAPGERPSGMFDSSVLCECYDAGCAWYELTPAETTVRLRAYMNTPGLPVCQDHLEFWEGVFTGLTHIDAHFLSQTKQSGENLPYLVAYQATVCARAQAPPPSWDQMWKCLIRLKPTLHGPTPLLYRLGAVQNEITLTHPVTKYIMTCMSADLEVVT
HCV NS3-4A serine protease (full-length NS3-4A protein), sequence (P26664 1658-1711 partner): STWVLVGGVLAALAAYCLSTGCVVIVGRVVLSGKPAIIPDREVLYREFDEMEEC

SMILES | IC50 [nM]
C=C[C@@H]1C[C@]1(NC(=O)[C@@H]1C[C@@]2(CN1C(=O)[C@@H](NC(=O)[C@@H](NC(=O)[C@@H]1CCCCN1C(C)C)C1CCCCC1)C(C)(C)C)C(C)(C)C21CCC1)C(=O)NS(=O)(=O)N(C)CCC [Compound 112, (5R,8S)-7-[(2S)-2-{[(2S)-2-cyclohexyl-2-({[(2S)-1-isopropylpiperidin-2-yl]carbonyl}amino)acetyl]amino}-3,3-dimethylbutanoyl]-10,10-dimethyl-N-[(1R,2S)-1-({[methyl(propyl)amino]sulfonyl}carbamoyl)-2-vinylcyclopropyl]-7-azadispiro[3.0.4.1]decane-8-carboxamide] | 1.4
C=C[C@@H]1C[C@]1(NC(=O)[C@@H]1C[C@@]2(CN1C(=O)[C@@H](NC(=O)[C@@H](NC(=O)[C@H]1CCCCN1CC)C1CCCCC1)C(C)(C)C)C(C)(C)C21CCC1)C(=O)NS(=O)(=O)N1CCCC1 [Compound 36, (5R,8S)-7-[(2S)-2-{[(2S)-2-cyclohexyl-2-({[(2R)-1-ethylpiperidin-2-yl]carbonyl}amino)acetyl]amino}-3,3-dimethylbutanoyl]-10,10-dimethyl-N-{(1R,2S)-1-[(pyrrolidin-1-ylsulfonyl)carbamoyl]-2-vinylcyclopropyl}-7-azadispiro[3.0.4.1]decane-8-carboxamide] | 3.5
C=C[C@@H]1C[C@]1(NC(=O)[C@@H]1C[C@@]2(CN1C(=O)[C@@H](NC(=O)[C@@H](NC(=O)[C@@H]1CCCCN1C(C)C)C1CCCCC1)C(C)(C)C)C(C)(C)C21CCC1)C(=O)NS(=O)(=O)N1CCC(F)(F)C1 [Compound 143, (5R,8S)-7-[(2S)-2-{[(2S)-2-cyclohexyl-2-({[(2S)-1-isopropylpiperidin-2-yl]carbonyl}amino)acetyl]amino}-3,3-dimethylbutanoyl]-N-[(1R,2S)-1-{[(3,3-difluoropyrrolidin-1-yl)sulfonyl]carbamoyl}-2-vinylcyclopropyl]-10,10-dimethyl-7-azadispiro[3.0.4.1]decane-8-carboxamide] | 3
C=C[C@@H]1C[C@]1(NC(=O)[C@@H]1C[C@@]2(CN1C(=O)[C@@H](NC(=O)[C@@H](NC(=O)[C@@H]1CCCCN1CCF)C(C)(C)C)C(C)(C)C)C(C)(C)C21CCC1)C(=O)NS(=O)(=O)N1CCOCC1 [Compound 8, (5R,8S)-7-[(2S)-2-{[(2S)-2-({[(2S)-1-(2-fluoroethyl)piperidin-2-yl]carbonyl}amino)-3,3-dimethylbutanoyl]amino}-3,3-dimethylbutanoyl]-10,10-dimethyl-N-{(1R,2S)-1-[(morpholin-4-ylsulfonyl)carbamoyl]-2-vinylcyclopropyl}-7-azadispiro[3.0.4.1]decane-8-carboxamide] | 300
C=C[C@@H]1C[C@]1(NC(=O)[C@@H]1C[C@@]2(CN1C(=O)[C@@H](NC(=O)[C@@H](NC(=O)[C@@H]1CCCCN1C(C)C)C1CCCCC1)C1CCOCC1)C(C)(C)C21CCC1)C(=O)NS(=O)(=O)N1CCCC1 [Compound 41, (5R,8S)-7-[(2S)-2-{[(2S)-2-cyclohexyl-2-({[(2S)-1-isopropylpiperidin-2-yl]carbonyl}amino)acetyl]amino}-2-(tetrahydro-2H-pyran-4-yl)acetyl]-10,10-dimethyl-N-{(1R,2S)-1-[(pyrrolidin-1-ylsulfonyl)carbamoyl]-2-vinylcyclopropyl}-7-azadispiro[3.0.4.1]decane-8-carboxamide] | 0.9
C=C[C@@H]1C[C@]1(NC(=O)[C@@H]1C[C@@]2(CN1C(=O)[C@@H](NC(=O)[C@@H](NC(=O)[C@@H]1CCCN1CC)c1ccccc1)C(C)(C)C)C(C)(C)C21CCC1)C(=O)NS(=O)(=O)N1CCCC1 [Compound 102, (5R,8S)-7-[(2S)-2-{[(2S)-2-({[(2S)-1-ethylpyrrolidin-2-yl]carbonyl}amino)-2-phenylacetyl]amino}-3,3-dimethylbutanoyl]-10,10-dimethyl-N-{(1R,2S)-1-[(pyrrolidin-1-ylsulfonyl)carbamoyl]-2-vinylcyclopropyl}-7-azadispiro[3.0.4.1]decane-8-carboxamide] | 8
CC[C@@H]1C[C@]1(NC(=O)[C@@H]1C[C@@]2(CN1C(=O)[C@@H](NC(=O)[C@@H](NC(=O)[C@@H]1CCCCN1C(C)C)C1CCCCC1)C(C)(C)C)C(C)(C)C21CCC1)C(=O)NS(=O)(=O)N(CC)CC [Compound 203, (5R,8S)-7-[(2S)-2-{[(2S)-2-cyclohexyl-2-({[(2S)-1-isopropylpiperidin-2-yl]carbonyl}amino)acetyl]amino}-3,3-dimethylbutanoyl]-N-(1-{[(diethylamino)sulfonyl]carbamoyl}-2-ethylcyclopropyl)-10,10-dimethyl-7-azadispiro[3.0.4.1]decane-8-carboxamide] | 8
CC[C@@H]1C[C@]1(NC(=O)[C@@H]1C[C@@]2(CN1C(=O)[C@@H](NC(=O)[C@@H](NC(=O)[C@@H]1CCCCN1CC)C1CCCCC1)C(C)(C)C)C(C)(C)C21CCC1)C(=O)NS(=O)(=O)N1CCCC1 [Compound 87, (5R,8S)-7-[(2S)-2-{[(2S)-2-cyclohexyl-2-({[(2S)-1-ethylpiperidin-2-yl]carbonyl}amino)acetyl]amino}-3,3-dimethylbutanoyl]-N-{(1R,2R)-2-ethyl-1-[(pyrrolidin-1-ylsulfonyl)carbamoyl]cyclopropyl}-10,10-dimethyl-7-azadispiro[3.0.4.1]decane-8-carboxamide] | 7
C=C[C@@H]1C[C@]1(NC(=O)[C@@H]1C[C@@]2(CN1C(=O)[C@@H](NC(=O)[C@@H](NC(=O)[C@@H]1CCCCN1C(C)C)C(C)(C)C)C1(C)CCOCC1)C(C)(C)C21CCC1)C(=O)NS(=O)(=O)N1CCCC1 [Compound 128, (5R,8S)-7-[(2S)-2-[(N-{[(2S)-1-isopropylpiperidin-2-yl]carbonyl}-3-methyl-L-valyl)amino]-2-(4-methyltetrahydro-2H-pyran-4-yl)acetyl]-10,10-dimethyl-N-{(1R,2S)-1-[(pyrrolidin-1-ylsulfonyl)carbamoyl]-2-vinylcyclopropyl}-7-azadispiro[3.0.4.1]decane-8-carboxamide] | 1.4
[2H]C([2H])([2H])C([2H])([2H])N1CCCC[C@H]1C(=O)NC(C(=O)N[C@H](C(=O)N1C[C@]2(C[C@H]1C(=O)N[C@]1(C(=O)NS(=O)(=O)N3CCCC3)C[C@H]1C=C)C(C)(C)C21CCC1)C(C)(C)C)C1CCCCC1 (stereo partly drawn) [Compound 139, (5R,8S)-7-[(2S)-2-{[(2S)-2-cyclohexyl-2-({[(2S)-1-d5-ethylpiperidin-2-yl]carbonyl}amino)acetyl]amino}-3,3-dimethylbutanoyl]-10,10-dimethyl-N-{(1R,2S)-1-[(pyrrolidin-1-ylsulfonyl)carbamoyl]-2-vinylcyclopropyl}-7-azadispiro[3.0.4.1]decane-8-carboxamide-d5] | 3.5
C=C[C@@H]1C[C@]1(NC(=O)C1C[C@@]2(CN1C(=O)[C@@H](NC(=O)c1cccc(C(=O)NCCC)c1)C(C)(C)C)C(C)(C)C21CCC1)C(=O)NS(=O)(=O)N1CCCC1 (stereo partly drawn) [Compound 68, N-[(1S)-1-{[(5R)-10,10-dimethyl-8-({(1R,2S)-1-[(pyrrolidin-1-ylsulfonyl)carbamoyl]-2-vinylcyclopropyl}carbamoyl)-7-azadispiro[3.0.4.1]dec-7-yl]carbonyl}-2,2-dimethylpropyl]-N′-propylisophthalamide] | 950
C=C[C@@H]1C[C@]1(NC(=O)[C@@H]1C[C@@]2(CN1C(=O)[C@@H](NC(=O)[C@@H](NC(=O)[C@H]1CCN1C(C)C)C(C)(C)C)C(C)(C)C)C(C)(C)C21CCC1)C(=O)NS(=O)(=O)N1CCCC1 [Compound 22, (5R,8S)-7-[(2S)-2-{[(2S)-2-({[(2R)-1-isopropylazetidin-2-yl]carbonyl}amino)-3,3-dimethylbutanoyl]amino}-3,3-dimethylbutanoyl]-10,10-dimethyl-N-{(1R,2S)-1-[(pyrrolidin-1-ylsulfonyl)carbamoyl]-2-vinylcyclopropyl}-7-azadispiro[3.0.4.1]decane-8-carboxamide] | 95
C=C[C@@H]1C[C@]1(NC(=O)[C@@H]1C[C@@]2(CN1C(=O)[C@@H](NC(=O)[C@@H](NC(=O)[C@@H]1CCCN1CC)C1(C)CCCCC1)C(C)(C)C)C(C)(C)C21CCC1)C(=O)NS(=O)(=O)N(CC)CC [Compound 134, (5R,8S)-N-[(1R,2S)-1-{[(diethylamino)sulfonyl]carbamoyl}-2-vinylcyclopropyl]-7-[(2S)-2-{[(2S)-2-({[(2S)-1-ethylpyrrolidin-2-yl]carbonyl}amino)-2-(1-methylcyclohexyl)acetyl]amino}-3,3-dimethylbutanoyl]-10,10-dimethyl-7-azadispiro[3.0.4.1]decane-8-carboxamide] | 5
C=C[C@@H]1C[C@]1(NC(=O)[C@@H]1C[C@@]2(CN1C(=O)[C@@H](NC(=O)[C@@H](NC(=O)[C@@H]1CCCCN1C(C)C)C(C)(C)C)C(C)C)C(C)(C)C21CCC1)C(=O)NS(=O)(=O)N(CC)CC [Compound 131, (5R,8S)-N-[(1R,2S)-1-{[(diethylamino)sulfonyl]carbamoyl}-2-vinylcyclopropyl]-7-[(2S)-2-{[(2S)-2-({[(2S)-1-isopropylpiperidin-2-yl]carbonyl}amino)-3,3-dimethylbutanoyl]amino}-3-methylbutanoyl]-10,10-dimethyl-7-azadispiro[3.0.4.1]decane-8-carboxamide] | 5.5
C=C[C@@H]1C[C@]1(NC(=O)[C@@H]1C[C@@]2(CN1C(=O)[C@@H](NC(=O)[C@@H](NC(=O)[C@@H]1Cc3[nH]cnc3CN1)C(C)(C)C)C(C)(C)C)C(C)(C)C21CCC1)C(=O)NS(=O)(=O)N1CCCC1 [Compound 29, (5R,8S)-7-[(2S)-2-{[(2S)-3,3-dimethyl-2-{[(6S)-4,5,6,7-tetrahydro-1H-imidazo[4,5-c]pyridin-6-ylcarbonyl]amino}butanoyl]amino}-3,3-dimethylbutanoyl]-10,10-dimethyl-N-{(1R,2S)-1-[(pyrrolidin-1-ylsulfonyl)carbamoyl]-2-vinylcyclopropyl}-7-azadispiro[3.0.4.1]decane-8-carboxamide] | 40
